Experimental data: PubChem BioAssay (NCI)
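Tested at 5 concentrations; 48 h exposure; 96-well plates; endpoints linearly interpolated, else capped at highest concentration. At the GI50, growth is halved. At the TGI there is no net growth.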

Legend:
Assay in all cases: NCI anticancer screen, dose series, 48 h
[1] = test system: 786-0 renal
[2] = test system: A498 renal
[3] = test system: A549 NSCLC
[4] = test system: ACHN renal
[5] = test system: BT-549 breast
[6] = test system: CAKI-1 renal
[7] = test system: CCRF-CEM leukemia
[8] = test system: COLO 205 colon
[9] = test system: DU-145 prostate
[10] = test system: EKVX NSCLC
[11] = test system: HCC-2998 colon
[12] = test system: HCT-116 colon
[13] = test system: HCT-15 colon
[14] = test system: HL-60(TB) leukemia
[15] = test system: HOP-62 NSCLC
[16] = test system: HOP-92 NSCLC
[17] = test system: HS 578T breast
[18] = test system: HT29 colon
[19] = test system: IGROV1 ovarian
[20] = test system: KM12 colon
[21] = test system: LOX IMVI melanoma
[22] = test system: M14 melanoma
[23] = test system: MALME-3M melanoma
[24] = test system: MCF7 breast
[25] = test system: MDA-MB-231 breast
[26] = test system: MDA-MB-435
[27] = test system: MOLT-4 leukemia
[28] = test system: NCI-H226 lung
[29] = test system: NCI-H23 lung
[30] = test system: NCI-H460 lung
[31] = test system: NCI-H522 lung
[32] = test system: NCI/ADR-RES ovarian
[33] = test system: OVCAR-3 ovarian
[34] = test system: OVCAR-4 ovarian
[35] = test system: OVCAR-5 ovarian
[36] = test system: OVCAR-8 ovarian
[37] = test system: PC-3 prostate
[38] = test system: RPMI-8226 leukemia
[39] = test system: RXF 393 renal
[40] = test system: SF-268 CNS
[41] = test system: SF-295 CNS
[42] = test system: SF-539 CNS
[43] = test system: SK-MEL-2 melanoma
[44] = test system: SK-MEL-28 melanoma
[45] = test system: SK-MEL-5 melanoma
[46] = test system: SK-OV-3 ovarian
[47] = test system: SNB-19 CNS
[48] = test system: SNB-75 CNS
[49] = test system: SR leukemia
[50] = test system: SW-620 colon
[51] = test system: T-47D breast
[52] = test system: TK-10 renal
[53] = test system: U251 CNS
[54] = test system: UACC-257 melanoma
[55] = test system: UACC-62 melanoma
[56] = test system: UO-31 renal

Cc1nc2cc(-n3c(-c4ccc(F)cc4)nc4ccccc4c3=O)ccc2n1Cc1ccccc1
GI50 [1]: 1.86 µM | TGI [1]: 3.62 µM | GI50 [2]: 2.23 µM | TGI [2]: 11.6 µM | GI50 [3]: 2.02 µM | TGI [3]: 4.66 µM | GI50 [4]: 2.05 µM | TGI [4]: 4.63 µM | GI50 [5]: 1.71 µM | TGI [5]: 3.48 µM | GI50 [6]: 1.89 µM | TGI [6]: 4.51 µM | GI50 [7]: 8.34 µM | TGI [7]: > 100 µM | GI50 [8]: 2.11 µM | TGI [8]: 5.1 µM | GI50 [9]: 2.6 µM | TGI [9]: 6.95 µM | GI50 [10]: 6.28 µM | TGI [10]: 49.9 µM | GI50 [11]: > 100 µM | TGI [11]: > 100 µM | GI50 [12]: 1.57 µM | TGI [12]: 3.39 µM | GI50 [13]: 2.94 µM | TGI [13]: 11.6 µM | GI50 [14]: 13 µM | TGI [14]: > 100 µM | GI50 [15]: 2.44 µM | TGI [15]: 6.98 µM | GI50 [16]: 2.47 µM | TGI [16]: 8.25 µM | GI50 [17]: 2.68 µM | TGI [17]: 8.6 µM | GI50 [18]: 2.23 µM | TGI [18]: 4.71 µM | GI50 [19]: 5.9 µM | TGI [19]: 31.2 µM | GI50 [20]: 3.12 µM | TGI [20]: 15.7 µM | GI50 [21]: 1.97 µM | TGI [21]: 4.59 µM | GI50 [22]: 2.13 µM | TGI [22]: 4.62 µM | GI50 [23]: 2.36 µM | TGI [23]: 5.36 µM | GI50 [24]: 2.24 µM | TGI [24]: 5.56 µM | GI50 [25]: 1.91 µM | TGI [25]: 5.09 µM | GI50 [26]: 1.98 µM | TGI [26]: 4.21 µM | GI50 [27]: 3.52 µM | TGI [27]: > 100 µM | GI50 [28]: 2.02 µM | TGI [28]: 6.51 µM | GI50 [29]: 4.23 µM | TGI [29]: 37.6 µM | GI50 [30]: 2.01 µM | TGI [30]: 4.09 µM | GI50 [31]: 1.94 µM | TGI [31]: 6.49 µM | GI50 [32]: 1.85 µM | TGI [32]: 4.56 µM | GI50 [33]: 2.35 µM | TGI [33]: 5.2 µM | GI50 [34]: 2.24 µM | TGI [34]: 5.26 µM | GI50 [35]: 5.48 µM | TGI [35]: 24.1 µM | GI50 [36]: 2.31 µM | TGI [36]: 6.06 µM | GI50 [37]: 1.96 µM | TGI [37]: 5.3 µM | GI50 [38]: 5.58 µM | TGI [38]: 39.7 µM | GI50 [39]: 1.89 µM | TGI [39]: 4.26 µM | GI50 [40]: 2.83 µM | TGI [40]: 10.1 µM | GI50 [41]: 2.32 µM | TGI [41]: 5.73 µM | GI50 [42]: 1.91 µM | TGI [42]: 3.79 µM | GI50 [43]: 2.32 µM | TGI [43]: 8.6 µM | GI50 [44]: 2 µM | TGI [44]: 3.94 µM | GI50 [45]: 2.67 µM | TGI [45]: 9.07 µM | GI50 [46]: 3.55 µM | TGI [46]: 13.8 µM | GI50 [47]: 4.57 µM | TGI [47]: 26.8 µM | GI50 [48]: 1.49 µM | TGI [48]: 3.6 µM | GI50 [49]: 2.7 µM | TGI [49]: > 100 µM | GI50 [50]: 3.16 µM | TGI [50]: 19.2 µM | GI50 [51]: 1.7 µM | TGI [51]: 4.22 µM | GI50 [52]: 2.73 µM | TGI [52]: 7.17 µM | GI50 [53]: 2.19 µM | TGI [53]: 5.18 µM | GI50 [54]: 2.64 µM | TGI [54]: 6.68 µM | GI50 [55]: 2.8 µM | TGI [55]: 9.79 µM | GI50 [56]: 2.15 µM | TGI [56]: 8.42 µM
